Measured values published in patent US11241427B2, “Small molecule modulators of NR2F6 activity” (Regen Biopharma, Inc., priority 2015, dated 2022).
Like-named read-outs stand apart in the source and are kept apart here.

Target: T1, NR2F6 (ligand binding domain, amino acids 163-404) (Homo sapiens, UniProt P10588)
T1 construct: HIS (N, cleaved yes); FLAG (N, cleaved yes); TEV site (N, cleaved yes); made in house; host or cells: E. coli BL21 (DE3)
T1 sequence (P10588 163-404): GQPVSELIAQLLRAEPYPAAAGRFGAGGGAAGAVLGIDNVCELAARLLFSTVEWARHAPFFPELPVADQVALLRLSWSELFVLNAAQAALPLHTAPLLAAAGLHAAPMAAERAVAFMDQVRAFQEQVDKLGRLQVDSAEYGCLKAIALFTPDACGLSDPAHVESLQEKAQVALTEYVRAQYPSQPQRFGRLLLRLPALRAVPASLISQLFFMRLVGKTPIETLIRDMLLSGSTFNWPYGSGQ
Assay: Thermoshift analysis (TSA) of compound binding to NR2F6
Conditions: for Tm: NR2F6 alone Tm 48 °C
Protocol: The binding interaction between target protein NR2F6 and 139 compounds selected from an in silico screen was assessed using thermoshift analysis (TSA). Thermoshift is a physical technique used to determine the melting temperature of a protein. The interaction of the ligand to the folded state of the protein shifts the melting temperature. In the experimental system used, the NR2F6 protein is mixed with the ligand and the fluorescent dye SYPRO Orange®. The fluorescence is monitored over temperature gradient between 20 and 95° C. with 0.5° C. increment. The dye binds to the hydrophobic regions of molten globules and denatured proteins resulting in an increase of fluorescence. A plot of the fluorescence is obtained and used to determine the melting temperature in absence and presence of ligand.
The ligand binding domain of NR2F6 (amino acids 163-404) was cloned for soluble expression in E. coli with an N-terminal HIS-FLAG-TEV-tag. Expression was performed in BL21 (DE3) cells. In brief, a 12L E. coli culture was induced with IPTG in logarithmic phase and further incubated over night at 18° C. Cells were harvested via centrifugation, washed with buffer and stored at […] until purification.
The purification procedure performed consists of HIS affinity chromatography, tag cleavage, negative affinity chromatography, size exclusion chromatography and ion exchange chromatography.
Thermoshift analysis was performed on 139 Compounds that were stored as powder in DMSO stocks. A reaction volume of 25 μl was used, with reaction temperatures being increased in 0.5 increments from 20-95° C. in 96 well, PCR plates (Hard-Shell®, HSP-9655). The control was NR2F6 protein alone in 1% DMSO. For performing the reaction, a reaction buffer comprising of the following was utilized: 20 mM HEPES pH 6.85, 150 mM NaCl, 10% Glycerin and 0.5 mM TCEP.
The following pipetting sequence was used: 1) Add appropriate volume of target enzyme in reaction buffer; 2) Add appropriate volume of dye SYPRO Orange® in reaction buffer; 3) Add inhibitor in 100% DMSO (1% final DMSO conc); 4) Measure fluorescence
Fluorescence was quantified using a CFX Connect™ Real-Time PCR Detection System (BioRad)
An increase in melting temperature is indicative for compound binding.

[1] = Table 1.1, 100 μM compound, shift versus NR2F6 alone (Tm 48 °C), read-out: delta Tm
[2] = Table 1.1, 100 μM compound, 0.5 mg/ml NR2F6, 1% DMSO
[3] = Table 1.1, 100 μM compound, shift versus NR2F6 alone (Tm 48 °C)

| Compound | Tm (Table 1.2, 100 μM compound) [°C] | ΔTm at 100 µM [1] [°C] | Tm [2] [°C] | delta Tm [3] [°C] | ΔTm at 100 µM [°C] |
| --- | --- | --- | --- | --- | --- |
| O=Cc1c2c(cc3c1=Nc1ccccc1-3)=Nc1ccccc1-2 [Cpd 17, 6-Formylindolo [3,2-B] carbazole] | 50 | – | – | – | – |
| CC1=C(/C=C/C(C)=C/C=C/C(C)=C/C(=O)Nc2ccc(O)cc2)C(C)(C)CCC1 [Cpd 43, 4-Hydroxyphenylretinamide] | 50 | – | – | – | – |
| CC(C)(Oc1ccc(CCNC(=O)c2ccc(Cl)cc2)cc1)C(=O)O [Cpd 61, Bezafibrate] | – | 0 | – | – | – |
| O=C(Nc1ccccc1)c1cc([N+](=O)[O-])ccc1Cl [Cpd 62, GW 9662] | – | – | 48 | 0 | – |
| C[C@H](CCC(=O)NCC(=O)O)[C@H]1CC[C@H]2[C@@H]3[C@H](O)C[C@@H]4C[C@H](O)CC[C@]4(C)[C@H]3C[C@H](O)[C@]12C [Cpd 63, Glycochalic acid] | – | – | 48 | 0 | – |
| C/C=C1\C(=O)C[C@H]2[C@@H]3CCC4=CC(=O)CC[C@]4(C)[C@H]3CC[C@]12C [Cpd 64, Z-Guggulsterone] | – | – | 46 | −2 | – |
| C[C@]12CC[C@@H]3c4ccc(O)cc4CC[C@H]3[C@@H]1CC[C@@H]2O [Cpd 65, 17b-Estradiol] | – | – | 47 | −1 | – |
| Cc1cccc(Nc2cc(Cl)nc(SCC(=O)O)n2)c1C [Cpd 66, WY-14643] | – | -0.5 | 47.5 | – | – |
| CCCc1c(OCCCCc2nnn[nH]2)ccc(C(C)=O)c1O [Cpd 67, LY 171883] | – | -1.5 | 46.5 | – | – |
| Cc1ccc(C)c(OCCCC(C)(C)C(=O)O)c1 [Cpd 68, Gemfibrozil] | – | -0.5 | 47.5 | – | – |
| CC(CCC(=O)NCC(=O)O)C1CCC2C3CCC4CC(O)CCC4(C)C3CC(O)C12C (centres unmarked) [Cpd 69, Glycodeoxycholic acid] | – | -1.5 | 46.5 | – | – |
| Clc1cnc(Oc2ccc(Oc3ncc(Cl)cc3Cl)cc2)c(Cl)c1 [Cpd 70, TCPOBOP] | – | – | 48 | 0 | – |
| CC(=O)[C@H]1CC[C@H]2[C@@H]3CC=C4C[C@@H](O)CC[C@]4(C)[C@H]3CC[C@]12C [Cpd 71, Pregnenoione] | – | – | 48 | 0 | – |
| CC1(COc2ccc(CC3SC(=O)NC3=O)cc2)CCCCC1 (centres unmarked) [Cpd 72, Ciglitazone] | – | -0.5 | – | – | – |
| CCCCC/C=C/C=C1/C(=O)C=C[C@@H]1C/C=C\CCCC(=O)O [Cpd 73, 15-Deoxy-D12,14-prostaglandin J2] | – | – | 48 | 0 | – |
| CC(C)(Sc1ccc(CCN(CCCCC2CCCCC2)C(=O)NC2CCCCC2)cc1)C(=O)O [Cpd 74, GW 7647] | – | -2.5 | 45.5 | – | – |
| C[C@H](CCC(=O)NCCS(=O)(=O)O)[C@H]1CC[C@H]2[C@@H]3[C@H](O)C[C@@H]4C[C@H](O)CC[C@]4(C)[C@H]3C[C@H](O)[C@]12C [Cpd 75, Taurocholic acid] | – | – | 47.5 | – | -0.5 |
| CCCCCCCC/C=C\CCCCCCCC(=O)NCCO [Cpd 76, N-Oleoylethanolamide] | – | – | 48.5 | 0.5 | – |
| C[C@]12CCC(=O)C=C1CC[C@@H]1[C@@H]2CC[C@]2(C)C(=O)CC[C@@H]12 [Cpd 77, Androstenedione] | – | – | 47 | – | -1 |
| Cc1c(C)c2c(c(C)c1O)CCC(C)(COc1ccc(CC3SC(=O)NC3=O)cc1)O2 (centres unmarked) [Cpd 79, Troglitazone] | – | 0 | – | – | – |
| N[C@@H](Cc1cc(I)c(Oc2ccc(O)cc2)c(I)c1)C(=O)O [Cpd 80, 3,5-Diiodo-L-thyroine] | – | – | 48.5 | 0.5 | – |
| C[C@H](CCC(=O)NCCS(=O)(=O)O)[C@H]1CC[C@H]2[C@@H]3CC[C@@H]4C[C@H](O)CC[C@]4(C)[C@H]3C[C@H](O)[C@]12C [Cpd 81, Taurodeoxycholic acid] | – | -0.5 | 47.5 | – | – |
| CC(C)c1onc(-c2c(Cl)cccc2Cl)c1COc1ccc(/C=C/c2cccc(C(=O)O)c2)c(Cl)c1 [Cpd 82, GW4064] | – | – | 35 | −13 | – |
